Legend:
[1] = system: DIPGX29 (H3.3 K27M diffuse intrinsic pontine glioma line); experiment: EC50 (inflection of fitted growth-inhibition curve) (log10 M)
In short: (§1)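 Treatment used a pin tool and a 10-point threefold dilution series, mean top concentration 35 μM, run in triplicate on patient-derived pHGG/DIPG cell lines and astrocyte controls in 1% Geltrex-coated 384-well plates. Plates were kept at 37 °C, 5% CO2 for 7 days (iAstro: 3 days). Log2-transformed CellTiter-Glo luminescence was scaled per plate to % activity between negative (solvent) and positive control wells and pooled before fitting. EC50 and maximal response (yFin) came from the three- or four-parameter log-logistic fit chosen by lowest AICc.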

[2] = system: DIPGX7 (H3.3 K27M diffuse intrinsic pontine glioma line); experiment: as above
In short: as §1

[3] = system: SUDIPGXIII (diffuse intrinsic pontine glioma line); experiment: as above
In short: as §1

[4] = system: SUDIPGXXI (diffuse intrinsic pontine glioma line); experiment: as above
In short: as §1

[5] = system: DIPGX9 (diffuse intrinsic pontine glioma line); experiment: as above
In short: as §1

[6] = system: HGGX2 (paediatric high-grade glioma line); experiment: as above
In short: as §1

[7] = system: HGGX42 (H3.3 G34R paediatric high-grade glioma line); experiment: as above
In short: as §1

[8] = system: iAstro (astrocyte control); experiment: as above
In short: as §1

[9] = system: SUDIPGIV (diffuse intrinsic pontine glioma line); experiment: as above
In short: as §1

[10] = system: SUDIPGXVII (diffuse intrinsic pontine glioma line); experiment: as above
In short: as §1

[11] = system: HGGX6 (H3.3 G34R paediatric high-grade glioma line); experiment: as above
In short: as §1

[12] = system: SUDIPGVI (diffuse intrinsic pontine glioma line); experiment: as above
In short: as §1

[13] = system: DIPGX37 (H3.3 K27M diffuse intrinsic pontine glioma line); experiment: as above
In short: as §1

[14] = system: HABS (astrocyte control); experiment: as above
In short: as §1

[15] = system: SUDIPGXIX (diffuse intrinsic pontine glioma line); experiment: as above
In short: as §1

[16] = system: HGGX39 (paediatric high-grade glioma line); experiment: as above
In short: as §1

[17] = system: DIPGX29; experiment: maximal growth inhibition (yFin) relative to DMSO / staurosporine; higher = more efficacious
In short: as §1

[18] = system: DIPGX7; experiment: as above
In short: as §1

[19] = system: SUDIPGXIII; experiment: as above
In short: as §1

[20] = system: SUDIPGXXI; experiment: as above
In short: as §1

[21] = system: DIPGX9; experiment: as above
In short: as §1

[22] = system: HGGX2; experiment: as above
In short: as §1

[23] = system: HGGX42; experiment: as above
In short: as §1

[24] = system: iAstro; experiment: as above
In short: as §1

[25] = system: SUDIPGIV; experiment: as above
In short: as §1

[26] = system: SUDIPGXVII; experiment: as above
In short: as §1

[27] = system: HGGX6; experiment: as above
In short: as §1

[28] = system: SUDIPGVI; experiment: as above
In short: as §1

[29] = system: DIPGX37; experiment: as above
In short: as §1

[30] = system: HABS; experiment: as above
In short: as §1

[31] = system: SUDIPGXIX; experiment: as above
In short: as §1

[32] = system: HGGX39; experiment: as above
In short: as §1

[33] = system: SUDIPGXIII; experiment: area under dose-response curve of % growth inhibition (log2 RLU vs DMSO / staurosporine), 1e-11 to 1e-4 M (% x log10 M); higher = more growth inhibition
In short: (§2)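 Patient-derived pHGG/DIPG cell lines and astrocytes were plated in 384-well plates coated with 1% Geltrex and treated in triplicate with a 10-point threefold dilution series whose mean top concentration was 35 μM, for 7 days (3 days for iAstro) at 37 °C and 5% CO2. CellTiter-Glo luminescence was log2-transformed and scaled on each plate to % activity between solvent and positive controls. Area under the curve came from the trapezoid rule applied to a fitted log-logistic curve, or to a smoothing spline where the sigmoid fit failed.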

[34] = system: DIPGX9; experiment: as above
In short: as §2

[35] = system: HGGX6; experiment: as above
In short: as §2

[36] = system: DIPGX37; experiment: as above
In short: as §2

[37] = system: HABS; experiment: as above
In short: as §2

Row | SMILES | EC50 (log10 M) [1] | EC50 (log10 M) [2] | EC50 (log10 M) [3] | EC50 (log10 M) [4] | EC50 (log10 M) [5] | EC50 (log10 M) [6] | EC50 (log10 M) [7] | EC50 (log10 M) [8] | EC50 (log10 M) [9] | EC50 (log10 M) [10] | EC50 (log10 M) [11] | EC50 (log10 M) [12] | EC50 (log10 M) [13] | EC50 (log10 M) [14] | EC50 (log10 M) [15] | EC50 (log10 M) [16] | maximal growth inhibition [17] | maximal growth inhibition [18] | maximal growth inhibition [19] | maximal growth inhibition [20] | maximal growth inhibition [21] | maximal growth inhibition [22] | maximal growth inhibition [23] | maximal growth inhibition [24] | maximal growth inhibition [25] | maximal growth inhibition [26] | maximal growth inhibition [27] | maximal growth inhibition [28] | maximal growth inhibition [29] | maximal growth inhibition [30] | maximal growth inhibition [31] | maximal growth inhibition [32] | area under dose-response curve [33] | area under dose-response curve [34] | area under dose-response curve [35] | area under dose-response curve [36] | area under dose-response curve [37]
1 | CC(=O)OC[C@H]1O[C@@H]([S-])[C@H](OC(C)=O)[C@@H](OC(C)=O)[C@@H]1OC(C)=O.CCP(CC)CC.[Au+] [AURANOFIN] | -6.49 | -5.9 | -5.39 | -6.66 | -5.78 | -6.28 | -6.16 | -5.84 | -5.57 | -5.45 | -6.35 | -5.76 | -6.41 | -5.29 | -5.93 | -5.52 | 93.1% | 119% | 113% | 122% | 118% | 110% | 116% | 106% | 117% | 117% | 92.2% | 114% | 90.9% | 113% | 118% | 107% | 168 | 209 | 218 | 219 | 146
2 | COC(=O)[C@]12CCC(C)(C)C[C@H]1[C@H]1C(=O)C=C3[C@@]4(C)C=C(C#N)C(=O)C(C)(C)[C@@H]4CC[C@@]3(C)[C@]1(C)CC2 [BARDOXOLONE METHYL] | -6.17 | -5.56 | -5.62 | -6.24 | -5.73 | -5.74 | -5.83 | -5.99 | -5.65 | -5.59 | -5.93 | -5.63 | -6.09 | -5.66 | -5.53 | -6.01 | 87.1% | 112% | 97% | 103% | 107% | 104% | 111% | 96.5% | 122% | 109% | 86.8% | 96.1% | 88.6% | 105% | 124% | 92.1% | 155 | 185 | 168 | 185 | 174
3 | CC(C)(C)OC(=O)Nc1ccc(-c2cc(C(=O)NCCCCCCC(=O)NO)no2)cc1 [BML-281] | -5.53 | -4.92 | -4.89 | -6.1 | -5.48 | -5.43 | -5.45 | -5.37 | -5.19 | -5.09 | -5.04 | -4.92 | -5.46 | -4.89 | -5 | -4.94 | 55.1% | 91.7% | 39% | 104% | 97.6% | 64% | 33.3% | 50% | 76% | 58.3% | 52.9% | 71.8% | 38.1% | 74.1% | 85.3% | 84% | 54.5 | 146 | 55.5 | 56.6 | 83.1
4 | CC(=O)c1ccc2c(c1)c1cc(C(C)=O)ccc1n2CCNC(C)C [CBL-0137] | -5.42 | -5.22 | -5.14 | -6.51 | -6.06 | -5.6 | -5.67 | -6.54 | -5.61 | -5.23 | -5.37 | -5.09 | -5.98 | -6.08 | -6.28 | -5.42 | 94.2% | 99.2% | 96.5% | 113% | 106% | 83.4% | 91.8% | 23.8% | 96.8% | 97.5% | 88.7% | 92.3% | 101% | 74.4% | 98% | 104% | 123 | 218 | 122 | 199 | 155
5 | O=C(Nc1ccc(Nc2nccc(Nc3cc(C4CCCC4)[nH]n3)n2)cc1)Nc1cccc(C(F)(F)F)c1 [CD532] | -6.34 | -6.51 | -6.36 | -7.24 | -6.65 | -6.21 | -6.66 | -6.36 | -6.47 | -6.47 | -6.3 | -6.5 | -6.42 | -5.37 | -6.52 | -5.92 | 94.4% | 112% | 103% | 109% | 115% | 111% | 102% | 95.2% | 112% | 100% | 87.6% | 111% | 98.2% | 122% | 112% | 104% | 235 | 305 | 202 | 238 | 174
6 | NC1CCC(Nc2cc(-c3cccc(NCc4cccc(F)c4)n3)c(Cl)cn2)CC1 (stereo not given) [CDK9-IN-2] | -6.87 | -6.76 | -5.75 | -7.4 | -7.13 | -5.72 | -7 | -5.35 | -6.76 | -6.67 | -6.96 | -6.92 | -6.76 | -5.73 | -6.93 | -5.75 | 71.8% | 90.4% | 94.9% | 95.9% | 88.7% | 95.4% | 76.7% | 85.7% | 88.1% | 87% | 67.1% | 71.3% | 77.5% | 98.5% | 86.9% | 99.7% | 167 | 278 | 199 | 214 | 180
7 | C[C@@H](Oc1cc(-c2cnn(C3CCNCC3)c2)cnc1N)c1c(Cl)ccc(F)c1Cl [CRIZOTINIB] | -4.83 | -4.88 | -4.81 | -5.77 | -5.11 | -5.11 | -5.15 | -4.89 | -4.85 | -4.9 | -4.67 | -5.01 | -4.84 | -4.84 | -5.23 | -4.69 | 104% | 104% | 92.3% | 119% | 101% | 97.4% | 102% | 87.3% | 98.4% | 96.4% | 88.6% | 94.1% | 102% | 90.9% | 99.6% | 92.8% | 74.2 | 112 | 59.1 | 87.8 | 76.5
8 | COc1ccc(-c2nc(N3CCOCC3)c3sc(CN(C)c4ncc(C(=O)NO)cn4)cc3n2)cn1 [CUDC-907] | -6.81 | -7.01 | -5.71 | -7.9 | -7.42 | -7 | -7.01 | -6.31 | -6.82 | -6.74 | -6.65 | -6.96 | -6.78 | -6.29 | -6.9 | -6.9 | 106% | 97.5% | 109% | 122% | 108% | 103% | 105% | 73.6% | 113% | 107% | 102% | 98% | 119% | 129% | 119% | 112% | 188 | 368 | 264 | 331 | 299
9 | CN1CCCN(C(=O)c2cccc(-c3ccc(/C=C4/C(=O)Nc5ccc(Cl)cc54)o3)c2)CC1 [CX-6258] | -5.6 | -5.42 | -5.08 | -7.11 | -5.34 | -5.51 | -5.75 | -5.49 | -5.37 | -5.25 | -5.24 | -5.2 | -5.76 | -5.1 | -5.48 | -5.28 | 112% | 110% | 104% | 106% | 108% | 108% | 106% | 102% | 107% | 110% | 106% | 108% | 109% | 112% | 110% | 110% | 112 | 167 | 132 | 191 | 124
10 | COc1cccc2c1C(=O)c1c(O)c3c(c(O)c1C2=O)C[C@@](O)(C(=O)CO)C[C@@H]3O[C@H]1C[C@H](N)[C@H](O)[C@H](C)O1 [DOXORUBICIN] | -5.63 | -6.06 | -5.71 | -8.4 | -6.92 | -6.74 | -6.5 | -7.21 | -6.59 | -5.78 | -5.69 | -5.86 | -6.4 | -7.02 | -7.02 | -5.68 | 102% | 103% | 87.7% | 95.8% | 99.9% | 61.1% | 96.5% | 26.4% | 97.8% | 95.8% | 86.1% | 89.1% | 86.8% | 69.6% | 97.2% | 101% | 170 | 293 | 147 | 210 | 210

From the supplement of paper PMC8253809
